In US9717243B2, “Piperidinecarboxylic acid derivatives as fungicides” (priority 2013, dated 2017):

Assay: LogP by HPLC on reversed phase columns (EEC directive 79/831 Annex V.A8)
Assay type: physicochemical
Conditions: not given
Experimental: Calibration was done with straight-chain alkan2-ones (with 3 to 16 carbon atoms) with known LogP values (measurement of LogP values using retention times with linear interpolation between successive alkanones). Lambda-max-values were determined using UV-spectra from 200 nm to 400 nm and the peak values of the chromatographic signals.

`C#CCOc1ccccc1C1CC(c2csc(C3(C(=O)OC4CCOC4)CCN(C(=O)Cn4nc(C(F)F)cc4C(F)F)CC3)n2)=NO1` (centres unmarked) [Example I-58] and `C#CCOc1ccc(F)c(F)c1C1CC(c2csc(C3(C(=O)OC4CCOC4)CCN(C(=O)Cn4nc(C(F)F)cc4C(F)F)CC3)n2)=NO1` (centres unmarked) [Example I-59] are the same in “Log P[a]” value: 3.55 for the first, 3.55 for the second.

`COC(=O)C1(c2nc(C3=NOC(c4c(Cl)cccc4OS(C)(=O)=O)C3)cs2)CCN(C(=O)Cn2nc(C(F)F)cc2C)CC1` (centres unmarked) [Example I-60] and `COC(=O)C1(c2nc(C3=NOC(c4c(Cl)cccc4OS(C)(=O)=O)C3)cs2)CCN(C(=O)Cn2nc(C)cc2C(F)F)CC1` (centres unmarked) [Example I-74] are within 0.2 log units of each other in “Log P[a]” value: 3.19 for the first, 3.15 for the second.

`COC(=O)C1(c2nc(C3=NOC(c4c(F)cccc4F)C3)cs2)CCN(C(=O)Cn2nc(C(F)F)cc2C)CC1` (centres unmarked) [Example I-62] and `COC(=O)C1(c2nc(C3=NOC(c4c(F)cccc4F)C3)cs2)CCN(C(=O)Cn2nc(C)cc2C(F)F)CC1` (centres unmarked) [Example I-75] are within 0.2 log units of each other in “Log P[a]” value: 3.17 for the first, 3.11 for the second.

Compared with `COC(=O)C1(c2nc(C3=NOC(c4ccccc4)C3)cs2)CCN(C(=O)Cn2nc(C(F)F)cc2C)CC1` (centres unmarked) [Example I-63], `COC(=O)C1(c2nc(C3=NOC(c4ccccc4)C3)cs2)CCN(C(=O)Cn2nc(C(F)(F)F)cc2C)CC1` (centres unmarked) [Example I-70] is higher in “Log P[a]” value: 3.17 for the first, 3.55 for the second.

First: COC(=O)C1(c2nc(C3=NOC(c4ccccc4OS(C)(=O)=O)C3)cs2)CCN(C(=O)Cn2nc(C(F)F)cc2C)CC1 (centres unmarked) [Example I-64]
Second: COC(=O)C1(c2nc(C3=NOC(c4ccccc4OS(C)(=O)=O)C3)cs2)CCN(C(=O)Cn2nc(C(F)(F)F)cc2C)CC1 (centres unmarked) [Example I-71]
The “Log P[a]” value of the first is lower: 2.96 for the first, 3.33 for the second.

First: C#CCOc1ccccc1C1CC(c2csc(C3(C(=O)OC)CCN(C(=O)Cn4nc(C(F)F)cc4C)CC3)n2)=NO1 (centres unmarked) [Example I-65]
Second: C#CCOc1ccccc1C1CC(c2csc(C3(C(=O)OC)CCN(C(=O)Cn4nc(C(F)(F)F)cc4C)CC3)n2)=NO1 (centres unmarked) [Example I-72]
The “Log P[a]” value of the first is lower: 3.33 for the first, 3.71 for the second.

`COC(=O)C1(c2nc(C3=NOC(c4c(Cl)cccc4OS(C)(=O)=O)C3)cs2)CCN(C(=O)Cn2nc(C(F)(F)F)cc2C)CC1` (centres unmarked) [Example I-67] and `COC(=O)C1(c2nc(C3=NOC(c4c(F)cccc4F)C3)cs2)CCN(C(=O)Cn2nc(C(F)(F)F)cc2C)CC1` (centres unmarked) [Example I-69] are the same in “Log P[a]” value: 3.55 for the first, 3.55 for the second.

First: C#CCOc1ccc(F)c(F)c1C1CC(c2csc(C3(C(=O)OC)CCN(C(=O)Cn4nc(C(F)(F)F)cc4C)CC3)n2)=NO1 (centres unmarked) [Example I-73]
Second: C#CCOc1ccc(F)c(F)c1C1CC(c2csc(C3(C(=O)OC)CCN(C(=O)Nc4cc(C(F)(F)F)nn4C)CC3)n2)=NO1 (centres unmarked) [Example I-81]
The “Log P[a]” value of the first is higher: 3.71 for the first, 3.35 for the second.

Going from `C#CCOc1ccc(F)c(F)c1C1CC(c2csc(C3(C(=O)OC)CCN(C(=O)Cn4nc(C)cc4C(F)F)CC3)n2)=NO1` (centres unmarked) [Example I-76] to `C#CCOC(=O)C1(c2nc(C3=NOC(c4c(Cl)cccc4OS(C)(=O)=O)C3)cs2)CCN(C(=O)Cn2nc(C(F)F)cc2C(F)F)CC1` (centres unmarked) [Example I-78], the “Log P[a]” value rises from 3.09 to 3.58.

First: COCCOC(=O)C1(c2nc(C3=NOC(c4c(Cl)cccc4OS(C)(=O)=O)C3)cs2)CCN(C(=O)Cn2nc(C(F)F)cc2C(F)F)CC1 (centres unmarked) [Example I-77]
Second: COC(=O)C1(c2nc(C3=NOC(c4ccccc4OS(C)(=O)=O)C3)cs2)CCN(C(=O)Nc2cc(C(F)(F)F)nn2C)CC1 (centres unmarked) [Example I-79]
The “Log P[a]” value of the first is higher: 3.48 for the first, 3.00 for the second.

Compared with `C#CCOc1ccccc1C1CC(c2csc(C3(C(=O)OC)CCN(C(=O)Nc4cc(C(F)(F)F)nn4C)CC3)n2)=NO1` (centres unmarked) [Example I-80], `COC(=O)C1(C(N)=S)CCN(C(=O)Nc2cc(C(F)(F)F)nn2C)CC1` [II-19] is lower in “Log P[a]” value: 3.35 for the first, 1.74 for the second.

First: NC(=S)C1(C(=O)OC2CCOC2)CCN(C(=O)Cn2nc(C(F)F)cc2C(F)F)CC1 (centres unmarked) [II-1]
Second: N#CC1(C(=O)OC2CCOC2)CCN(C(=O)Cn2nc(C(F)F)cc2C(F)F)CC1 (centres unmarked) [IV-1]
The “Log P[a]” value of the first is lower: 2.02 for the first, 2.26 for the second.

First: CSCCOC(=O)C1(C(N)=S)CCN(C(=O)Cn2nc(C(F)F)cc2C(F)F)CC1 [II-2]
Second: COCCOC(=O)C1(C(N)=S)CCN(C(=O)Cn2nc(C(F)F)cc2C(F)F)CC1 [II-18]
The “Log P[a]” value of the first is higher: 2.49 for the first, 2.10 for the second.

`C=CCOC(=O)C1(C(N)=S)CCN(C(=O)Cn2nc(C(F)F)cc2C(F)F)CC1` [II-3] and `CCOC(=O)C1(C(N)=S)CCN(C(=O)Cn2nc(C(F)F)cc2C(F)F)CC1` [II-10] are within 0.2 log units of each other in “Log P[a]” value: 2.42 for the first, 2.26 for the second.

Going from `NC(=S)C1(C(=O)OCc2ccccc2)CCN(C(=O)Cn2nc(C(F)F)cc2C(F)F)CC1` [II-4] to `N#CC1(C(=O)OCc2ccccc2)CCN(C(=O)Cn2nc(C(F)F)cc2C(F)F)CC1` [IV-6], the “Log P[a]” value rises from 2.90 to 3.23.

`COC(=O)C1(C(N)=S)CCN(C(=O)Cn2nc(C)cc2C(F)F)CC1` [II-5] and `COC(=O)C1(C(N)=S)CCN(C(=O)Cn2nc(C(F)F)cc2C)CC1` [II-7] are within 0.2 log units of each other in “Log P[a]” value: 1.75 for the first, 1.68 for the second.

Compared with `COC(=O)C1(C(N)=S)CCN(C(=O)Cn2nc(C(F)(F)F)cc2C)CC1` [II-6], `COC(=O)C1(C#N)CCN(C(=O)Cn2nc(C(F)(F)F)cc2C)CC1` [IV-7] is higher in “Log P[a]” value: 2.08 for the first, 2.32 for the second.

First: CC(C)OC(=O)C1(C(N)=S)CCN(C(=O)Cn2nc(C(F)F)cc2C(F)F)CC1 [II-9]
Second: C#CCOC(=O)C1(C(N)=S)CCN(C(=O)Cn2nc(C(F)F)cc2C(F)F)CC1 [II-17]
The “Log P[a]” value of the first is higher: 2.52 for the first, 2.27 for the second.

Going from `COC(=O)C1(C(N)=S)CCN(C(=O)Nc2cc(C(F)F)ccc2C(F)F)CC1` [II-13] to `COC(=O)C1(C(N)=S)CCN(C(=O)Nc2cn(C)nc2C(F)F)CC1` [II-16], the “Log P[a]” value falls from 2.23 to 1.22.

Going from `COC(=O)C1(C(N)=S)CCN(C(=O)Nc2cn(C(F)F)nc2C)CC1` [II-14] to `COC(=O)C1(C(N)=S)CCN(C(=O)Nc2cc(C)ccc2C)CC1` [II-15], the “Log P[a]” value rises from 1.30 to 2.02.

First: COCCOC(=O)C1(C#N)CCN(C(=O)Cn2nc(C(F)F)cc2C(F)F)CC1 [IV-2]
Second: CSCCOC(=O)C1(C#N)CCN(C(=O)Cn2nc(C(F)F)cc2C(F)F)CC1 [IV-3]
The “Log P[a]” value of the first is lower: 2.32 for the first, 2.78 for the second.

`C#CCOC(=O)C1(C#N)CCN(C(=O)Cn2nc(C(F)F)cc2C(F)F)CC1` [IV-4] and `C=CCOC(=O)C1(C#N)CCN(C(=O)Cn2nc(C(F)F)cc2C(F)F)CC1` [IV-5] are within 0.2 log units of each other in “Log P[a]” value: 2.52 for the first, 2.71 for the second.

Compared with `Cc1cc(C(F)F)nn1CC(=O)N1CCC(C#N)(C(=O)O)CC1` [IV-8], `COC(=O)C1(C#N)CCN(C(=O)Cn2nc(C(F)F)cc2C)CC1` [IV-9] is higher in “Log P[a]” value: 1.10 for the first, 1.89 for the second.

Same assay, conditions: Table 1, compounds of formula (I); LC-UV, acidic range, 0.1% formic acid in water and acetonitrile as eluent

Compared with `COC(=O)C1(c2nc(C3=NOC(c4ccccc4-c4ccccc4)C3)cs2)CCN(C(=O)Cn2nc(C(F)F)cc2C)CC1` (centres unmarked) [Example I-61], `COC(=O)C1(c2nc(C3=NOC(c4ccccc4-c4ccccc4)C3)cs2)CCN(C(=O)Cn2nc(C(F)(F)F)cc2C)CC1` (centres unmarked) [Example I-68] is higher in “Log P[a]” value: 4.09 for the first, 4.49 for the second.

Same assay, conditions: Table 4, compounds of formula (II); LC-UV, acidic range, 0.1% formic acid in water and acetonitrile as eluent; read-out: Log P[a]

Compared with `COC(=O)C1(C(N)=S)CCN(C(=O)Cn2nc(C(F)F)cc2C(F)F)CC1` [II-11, methyl 1-{[3,5-bis(difluoromethyl)-1H-pyrazol-1-yl]acetyl}-4-carbamothioylpiperidine-4-carboxylate], `COC(=O)C1(C(N)=S)CCN(C(=O)Nc2cc(C(F)F)nn2C)CC1` [II-12, methyl 4-carbamothioyl-1-{[3-(difluoromethyl)-1-methyl-1H-pyrazol-5-yl]carbamoyl}piperidine-4-carboxylate] is lower in chromatographic logP: 1.98 for the first, 1.33 for the second.
